Measured values as given in PubChem BioAssay (NCI).
Several values for one entry are separate records, joined by “and”; a condition that tells them apart may be missing. Equal entries are not always repeated.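 Dose response: 5 concentrations. Exposure: 48 h. Format: 96-well plates. Endpoint: linear interpolation; highest concentration if not reached. At the GI50, growth is halved. The concentration for full growth arrest is given as TGI.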

What was measured:
Assay in all cases: NCI tumour cell line growth inhibition, 48 h
SK-MEL-28 melanoma = system: SK-MEL-28 melanoma
SK-MEL-2 melanoma = system: SK-MEL-2 melanoma
ACHN renal = system: ACHN renal
MDA-MB-231 breast = system: MDA-MB-231 breast
SN12C renal = system: SN12C renal
SNB-19 CNS = system: SNB-19 CNS
TK-10 renal = system: TK-10 renal
MDA-MB-435 = system: MDA-MB-435
T-47D breast = system: T-47D breast
MCF7 breast = system: MCF7 breast
BT-549 breast = system: BT-549 breast
KM20L2 colon = system: KM20L2 colon
SF-268 CNS = system: SF-268 CNS
DMS 114 small cell lung = system: DMS 114 small cell lung
OVCAR-4 ovarian = system: OVCAR-4 ovarian
CAKI-1 renal = system: CAKI-1 renal
786-0 renal = system: 786-0 renal
HS 578T breast = system: HS 578T breast
A498 renal = system: A498 renal
EKVX NSCLC = system: EKVX NSCLC
SW-620 colon = system: SW-620 colon
DLD-1 colon = system: DLD-1 colon
OVCAR-5 ovarian = system: OVCAR-5 ovarian
P388/ADR leukemia = system: P388/ADR leukemia
A549 NSCLC = system: A549 NSCLC
SNB-78 CNS = system: SNB-78 CNS
SR leukemia = system: SR leukemia
SF-539 CNS = system: SF-539 CNS
UO-31 renal = system: UO-31 renal
HOP-92 NSCLC = system: HOP-92 NSCLC
NCI-H522 lung = system: NCI-H522 lung
MDA-N = system: MDA-N
NCI-H226 lung = system: NCI-H226 lung
PC-3 prostate = system: PC-3 prostate
OVCAR-3 ovarian = system: OVCAR-3 ovarian
CCRF-CEM leukemia = system: CCRF-CEM leukemia
HCT-116 colon = system: HCT-116 colon
NCI-H460 lung = system: NCI-H460 lung
RPMI-8226 leukemia = system: RPMI-8226 leukemia
RXF 393 renal = system: RXF 393 renal
KM12 colon = system: KM12 colon
IGROV1 ovarian = system: IGROV1 ovarian
UACC-257 melanoma = system: UACC-257 melanoma
HOP-18 NSCLC = system: HOP-18 NSCLC
SNB-75 CNS = system: SNB-75 CNS
SK-OV-3 ovarian = system: SK-OV-3 ovarian
HT29 colon = system: HT29 colon
MALME-3M melanoma = system: MALME-3M melanoma
HCC-2998 colon = system: HCC-2998 colon
SF-295 CNS = system: SF-295 CNS
UACC-62 melanoma = system: UACC-62 melanoma
NCI-H23 lung = system: NCI-H23 lung
DMS 273 small cell lung = system: DMS 273 small cell lung
OVCAR-8 ovarian = system: OVCAR-8 ovarian
XF 498 CNS = system: XF 498 CNS
HOP-62 NSCLC = system: HOP-62 NSCLC
RXF-631 renal = system: RXF-631 renal
LXFL 529 NSCLC = system: LXFL 529 NSCLC
COLO 205 colon = system: COLO 205 colon
K-562 leukemia = system: K-562 leukemia
U251 CNS = system: U251 CNS
LOX IMVI melanoma = system: LOX IMVI melanoma
HL-60(TB) leukemia = system: HL-60(TB) leukemia
M14 melanoma = system: M14 melanoma
HCT-15 colon = system: HCT-15 colon
MOLT-4 leukemia = system: MOLT-4 leukemia
M19-MEL melanoma = system: M19-MEL melanoma
SK-MEL-5 melanoma = system: SK-MEL-5 melanoma

**Q.** What does the source list for C=C1CC2CC[C@@]34CC5O[C@@H]6C(O[C@H]7CC[C@H](CC(=O)OC8C(C)C9OC%10C[C@]%11(C[C@@H]%12O[C@]%13(CC(C)[C@@H]%14O[C@H](C(O)CC(O)CO)C[C@@H]%14O%13)CC(C)[C@@H]%12O%11)OC%10CC9O[C@H]8C[C@H]8OC(CC[C@@H]1O2)C[C@@H](C)C8=C)OC7[C@@H]6O3)[C@H]5O4 (stereo partly specified)?
**A.** GI50 (SK-MEL-28 melanoma): 1.01 nM; TGI (SK-MEL-2 melanoma): 9.31 nM and 4.34 nM; TGI (ACHN renal): 1280 nM; GI50 (MDA-MB-231 breast): 2.67 nM; TGI (SN12C renal): 2.55 µM and 6.41 µM; TGI (SNB-19 CNS): 1820 nM; TGI (TK-10 renal): 16.8 µM; TGI (MDA-MB-435): 0.511 nM; TGI (T-47D breast): 5.32 µM; TGI (MCF7 breast): 2.55 µM and 21.4 µM; TGI (BT-549 breast): 2690 nM; TGI (KM20L2 colon): 1.67 nM; TGI (SF-268 CNS): 2550 nM and 1470 nM; GI50 (DMS 114 small cell lung): 0.255 nM; TGI (DMS 114 small cell lung): 5.54 nM and 8.56 nM; TGI (OVCAR-4 ovarian): 838 nM and 2420 nM; TGI (CAKI-1 renal): 464 nM and 1540 nM; TGI (786-0 renal): 1220 nM; GI50 (HS 578T breast): 0.182 nM; TGI (A498 renal): 32.1 nM and 6.79 nM; TGI (EKVX NSCLC): 2850 nM; TGI (SW-620 colon): 2550 nM; GI50 (DLD-1 colon): 0.255 nM; TGI (DLD-1 colon): 2550 nM; TGI (OVCAR-5 ovarian): 7.64 nM; TGI (P388/ADR leukemia): 8.46 nM; TGI (A549 NSCLC): 2550 nM and 1650 nM; GI50 (SNB-78 CNS): 0.255 nM; TGI (SNB-78 CNS): 2550 nM; GI50 (SR leukemia): 0.0153 nM; TGI (SF-539 CNS): 4.2 nM and 3.72 nM and 1.3 nM; TGI (UO-31 renal): 2460 nM; GI50 (HOP-92 NSCLC): 15.6 nM and 6.03 nM; TGI (NCI-H522 lung): 0.7 nM and 0.489 nM and 0.304 nM; GI50 (MDA-N): 0.0269 nM and 0.151 nM; TGI (MDA-N): 0.756 nM and 2.65 nM; TGI (NCI-H226 lung): 7.09 nM and 7.25 nM and 21.7 nM; GI50 (PC-3 prostate): 0.886 nM

**Q.** How did the TGI (SK-MEL-28 melanoma) turn out when C#CCNC(=O)NCCCCC(NC(=O)OCc1ccccc1)C(=O)OCc1ccccc1 (stereo unspecified) was run?
**A.** The TGI was > 100 µM.

**Q.** What about the TGI (OVCAR-3 ovarian) of the same molecule?
**A.** Its TGI is > 100 µM.

**Q.** And the TGI (CCRF-CEM leukemia)?
**A.** Its TGI is 41.3 µM.

**Q.** And the TGI (HCT-116 colon)?
**A.** The TGI was > 100 µM.

**Q.** And the TGI (NCI-H460 lung)?
**A.** The TGI was > 100 µM.

**Q.** And the TGI (RPMI-8226 leukemia)?
**A.** Its TGI is 45.9 µM.

**Q.** And the TGI (SK-MEL-2 melanoma)?
**A.** Its TGI is > 100000 nM.

**Q.** And the TGI (RXF 393 renal)?
**A.** Its TGI is > 100 µM.

**Q.** And the TGI (KM12 colon)?
**A.** The TGI was 69.8 µM.

**Q.** And the TGI (IGROV1 ovarian)?
**A.** The TGI was > 100 µM.

**Q.** What about the TGI (ACHN renal) of the same molecule?
**A.** Its TGI is > 31600 nM.

**Q.** What about the TGI (UACC-257 melanoma) of the same molecule?
**A.** Its TGI is > 100 µM.

**Q.** What about the TGI (SN12C renal) of the same molecule?
**A.** The TGI was > 100 µM.

**Q.** What about the TGI (HOP-18 NSCLC) of the same molecule?
**A.** The TGI was > 100 µM.

**Q.** And the TGI (SNB-19 CNS)?
**A.** The TGI was > 100000 nM.

**Q.** And the TGI (SNB-75 CNS)?
**A.** Its TGI is > 100 µM.

**Q.** And the TGI (TK-10 renal)?
**A.** The TGI was > 100 µM.

**Q.** What about the TGI (SK-OV-3 ovarian) of the same molecule?
**A.** The TGI was > 100 µM.

**Q.** What about the TGI (HT29 colon) of the same molecule?
**A.** The TGI was > 100 µM.

**Q.** And the TGI (MALME-3M melanoma)?
**A.** Its TGI is > 100 µM.

**Q.** And the TGI (HCC-2998 colon)?
**A.** The TGI was > 72.5 µM.

**Q.** What about the TGI (KM20L2 colon) of the same molecule?
**A.** The TGI was > 100000 nM.

**Q.** What about the TGI (DMS 114 small cell lung) of the same molecule?
**A.** Its TGI is > 73500 nM.

**Q.** And the TGI (SF-295 CNS)?
**A.** Its TGI is > 100 µM.

**Q.** What about the TGI (OVCAR-4 ovarian) of the same molecule?
**A.** Its TGI is > 100000 nM.

**Q.** What about the TGI (CAKI-1 renal) of the same molecule?
**A.** Its TGI is 97300 nM.

**Q.** What about the TGI (786-0 renal) of the same molecule?
**A.** The TGI was > 100000 nM.

**Q.** What about the TGI (UACC-62 melanoma) of the same molecule?
**A.** The TGI was > 100 µM.

**Q.** What about the TGI (NCI-H23 lung) of the same molecule?
**A.** Its TGI is > 100 µM.

**Q.** And the TGI (A498 renal)?
**A.** The TGI was > 100000 nM.

**Q.** What about the TGI (DMS 273 small cell lung) of the same molecule?
**A.** Its TGI is > 100 µM.

**Q.** What about the TGI (EKVX NSCLC) of the same molecule?
**A.** The TGI was > 100000 nM.

**Q.** And the TGI (SW-620 colon)?
**A.** The TGI was > 100000 nM.

**Q.** And the TGI (OVCAR-8 ovarian)?
**A.** The TGI was > 100 µM.

**Q.** And the TGI (XF 498 CNS)?
**A.** The TGI was 40.8 µM.

**Q.** And the TGI (HOP-62 NSCLC)?
**A.** Its TGI is > 43 µM.

**Q.** And the TGI (RXF-631 renal)?
**A.** Its TGI is > 100 µM.

**Q.** And the TGI (DLD-1 colon)?
**A.** The TGI was > 100000 nM.

**Q.** What about the TGI (OVCAR-5 ovarian) of the same molecule?
**A.** The TGI was > 100000 nM.

**Q.** And the TGI (A549 NSCLC)?
**A.** Its TGI is > 100000 nM.

**Q.** And the TGI (SNB-78 CNS)?
**A.** The TGI was > 100000 nM.

**Q.** And the TGI (LXFL 529 NSCLC)?
**A.** The TGI was > 100 µM.

**Q.** What about the TGI (COLO 205 colon) of the same molecule?
**A.** The TGI was 32.8 µM.

**Q.** What about the TGI (K-562 leukemia) of the same molecule?
**A.** Its TGI is > 100 µM.

**Q.** And the TGI (SR leukemia)?
**A.** Its TGI is > 100 µM.

**Q.** And the TGI (U251 CNS)?
**A.** Its TGI is > 100 µM.

**Q.** What about the TGI (LOX IMVI melanoma) of the same molecule?
**A.** The TGI was > 82.2 µM.

**Q.** What about the TGI (SF-539 CNS) of the same molecule?
**A.** The TGI was > 100000 nM.

**Q.** What about the TGI (HL-60(TB) leukemia) of the same molecule?
**A.** Its TGI is 35.4 µM.

**Q.** And the TGI (M14 melanoma)?
**A.** The TGI was > 100 µM.

**Q.** And the TGI (UO-31 renal)?
**A.** The TGI was > 72300 nM.

**Q.** And the TGI (HCT-15 colon)?
**A.** The TGI was > 100 µM.

**Q.** And the TGI (HOP-92 NSCLC)?
**A.** Its TGI is > 100 µM.

**Q.** What about the TGI (NCI-H522 lung) of the same molecule?
**A.** Its TGI is 54000 nM.

**Q.** And the TGI (MOLT-4 leukemia)?
**A.** The TGI was 51.9 µM.

**Q.** What about the TGI (NCI-H226 lung) of the same molecule?
**A.** Its TGI is > 100000 nM.

**Q.** And the TGI (M19-MEL melanoma)?
**A.** Its TGI is > 100 µM.

**Q.** What about the TGI (SK-MEL-5 melanoma) of the same molecule?
**A.** Its TGI is > 100 µM.
